Several values for one entry are separate records, joined by “and”; a condition that tells them apart may be missing. Identical values can stand only once.
What was measured:
[1] = test system: soluble endothelial protein C receptor (sEPCR); experiment: Plasma soluble EPCR level by monoclonal antibody-based ELISA in subjects on anticoagulant therapy; assay type: in vivo, human; conditions: for [sEPCR]: individual patients taking Sintrom, plasma, ELISA
Experimental: Soluble EPCR is generated in vitro by metalloproteinase activity induced by thrombin and some inflammatory mediators (Xu et al., 2000). Thus, the inventors chose to determine whether soluble EPCR levels reflected in vivo thrombin generation. To evaluate this, the soluble EPCR levels were determined in patients on oral anticoagulant therapy and compared with soluble EPCR levels found in a normal, apparently healthy adult population (FIGS. 1A and 1B). These samples were obtained from collaborators in France (Dr. M. Grimeaux, Serbio/Diagnostica Stago). The soluble EPCR levels are assayed using a monoclonal antibody-based enzyme-linked immunosorbent assay (ELISA) (U.S. Pat. No. 5,804,392, incorporated by reference herein). […] Previscan is a major oral anticoagulant used in France and Germany. […] The half-life for factor VII is only 3–5 hours, whereas that for prothrombin is 60–100 hrs.
To further evaluate the relationship between plasma sEPCR levels and anticoagulant therapy, samples were obtained from a normal adult population and from patients on intravenous unfractionated heparin therapy (FIG. 3). The data shown in FIGS. 3, 4A, 4B and 5 were obtained from samples contributed by a collaborator in Italy (Dr. Armando D'Angelo, Scientific Institute H. S. Rafeale, Milan, Italy).
Plasma was stored at −80° C. for determination of sEPCR levels by ELISA.

[2] = test system: prothrombin fragment 1+2 (F1+2)
Experimental: Blood was taken before the start of anticoagulation and sEPCR levels were determined by ELISA over the course of their therapy. There were 3 patients with atrial fibrillation and one patient each with dilative cardiomyopathy, mitral valve disease, atrial fibrillation+stroke, and deep vein thrombosis (DVT).

[3] = cited from earlier work
[4] = cited from earlier work; remark: listed apart in the source
INR = INR (prothrombin time based) in patients on oral anticoagulant; assay type: in vivo, human; conditions: individual patients taking Sintrom, one plasma sample per line

What does the source list for 4-hydroxycoumarin [Warfarin]?
plasma sEPCR levels during Warfarin treatment period ([1]; 6 normal adult subjects, Warfarin 7 days, FIG. 4A): declined; lag time before sEPCR levels declined after initiation of Warfarin ([1]; normal adult subjects): 24 to 48 h; time after cessation of Warfarin until sEPCR levels began to increase ([1]; normal adult subjects): 24 to 48 h; F1+2 level, % of initial values ([2]; healthy subjects, day 5 of Warfarin, P<0.05): 39%; F1+2 levels after initiation of Warfarin therapy ([2]; seven patients starting oral anticoagulation, FIG. 7): declined in most of the patients; intracranial bleeding, share of patients ([3]; during each year of therapy): 0.1–0.5%; major bleeding, share of people treated ([3]; during each year of therapy): 1–8%; Warfarin-induced skin necrosis, share of patients ([3]; in vivo): 0.01–0.1%; time to maximal blood levels ([4]; healthy volunteers, absorbed from the GI tract): 90 min; bioavailability ([4]; in vivo): excellent; onset ([4]; in vivo): 2 to 7 days

Which “half-life (in words)” value ([4]; in vivo) does the source give for O=C1c2ccccc2C(=O)C1c1ccc(F)cc1 [Previscan] here?
Its value is “long half-life (days)”.

Which results are given for CC(=O)CC(c1ccc([N+](=O)[O-])cc1)c1c(O)c2ccccc2oc1=O (centres unmarked) [Sintrom]?
[sEPCR] [1]: 369 ng/mL and 357 ng/mL and 198 ng/mL and 293 ng/mL; [sEPCR] ([1]; listed as SINTROM): 357 ng/ml and 131 ng/ml and 92 ng/ml and 127 ng/ml and 59 ng/ml and 61 ng/ml (2×) and 198 ng/ml and 171 ng/ml and 164 ng/ml and 56 ng/ml (2×) and 293 ng/ml and 172 ng/ml and 54 ng/ml and 94 ng/ml and 140 ng/ml and 135 ng/ml and 167 ng/ml and 369 ng/ml and 63 ng/ml; INR (INR): 2.0 and 2.6 and 3.3 and 3.6; INR (INR; listed as SINTROM): 2.6 (2×) and 2.7 (2×) and 2.8 and 3.1 (2×) and 3.3 (2×) and 3.4 and 3.5 and 3.6 and 4.5 and >5.0 (4×) and 1.5 and 1.8 and 1.9 and 2.0; half-life ([4]; Sintrom): ~8.5 h

Reference: patent US7169573B2, “Method for monitoring coagulability and hypercoagulable states” (Oklahoma Medical Research Foundation, priority 2001, dated 2007)
